From patent US20100143438A1, “BIOMOLECULES” (University of Strathclyde, priority 2006, published 2010) come the findings set out here.

The test system of this experiment is Fmoc-FRGD-PEGA surface tethered peptide (Fmoc-F↓RGD bond). Description: Enzymatic hydrolysis of PEGA surface tethered peptides analysed by HPLC. The class given is biochemical. The procedure:
Three proteolytic enzymes, chymotrypsin, thermolysin and proteinase K, that are known to cleave peptide bonds involving F amino acids in the P1 position were tested for their ability to selectively hydrolyse Fmoc-F↓RGD bond^15. […] Surfaces were incubated at 37° C. for 2 hours in enzyme solution (concentrations and activities are shown in Table 1) in phosphate buffer and the cleaved products were analysed by HPLC.
Surfaces were rinsed in a known volume (at least 4 ml) of a 50:50 mixture of acetonitrile (ACN) and water. The rinsing solution was kept and added to the enzyme solution that the surface was in. 1 ml of this solution was placed into an HPLC autosampler vial. The HPLC machine (manufactured by Dionex; California, USA) consisted of a P.680 HPLC pump joined to an ASI-100 Automated Sample Injector with a Dionex UVD17OU detector. The column was an EC 250/4.6 Nucleosil 100-5 C18, with an internal diameter of 4.6 mm and a column length of 250 mm containing particles of 5 μm in diameter. 100 μl was injected into the HPLC column at the start of each run and a buffer gradient run through the column, buffer A was 99.9% water and 0.1% TFA, buffer B was 99.9% ACN and 0.1% TFA. For quantification, three samples of each surface were produced and repeated three times.

Where [1] appears, read: 37° C., 2 hours in enzyme solution, 100% = 4.08 nmol maximum Fmoc-peptide hydrolysed, n=9.

For the substance Chymotrypsin, under setting [1], the “Fmoc-F-OH (%)” value is listed as 42 ± 1.8% and the “Fmoc-FR-OH (%)” value is 7.5 ± 1.4%. The “cleavage and selectivity for Fmoc-F↓RGD versus Fmoc-FR↓GD” value (HPLC) is “performing best”.
